Test results reported in US20110039721A1, “METHOD FOR PREDICTION ABOUT CARCINOGENICITY OF SUBSTANCE IN RODENT” (Chemicals Evaluation and Research Institute, priority 2007, published 2011).

Legend:
rodent = conditions: classification of the substance (C+/C−); cited from earlier work
liver = conditions: classification of the substance (Cr+/Cr−); cited from earlier work
[1] = tested on: mRNA expressed from the genes (A) to (D) in rat liver; assay: Behavior of genes (mRNA expression level, oligo-DNA microarray) in rat liver after 28-day oral administration; format: in vivo
How it was run: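 Liver mRNA measured by oligo-DNA microarray after 28 days of once-daily oral gavage in 5-week-old male F344 rats (n=4 per group), with vehicle controls given equal solvent volume. Significance threshold: 1.5-fold up or down versus control, with changes opposite in direction to other carcinogens counted as not significant.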

[2] = classification of the substance (M+/M−); cited from earlier work
[3] = gene group (A), Unigene No. Rn.167075
[4] = gene group (C), Unigene No. Rn.120914

**Q.** Which Carcinogenicity (rodent) does the source give for `Nc1cc([N+](=O)[O-])ccc1C(=O)O` [TS082, 4-Nitroanthranilic acid] here?
**A.** Its Carcinogenicity is “C−”.

**Q.** And the Liver carcinogenicity (liver)?
**A.** Its Liver carcinogenicity is “Cr−”.

**Q.** What about the “Behavior of gene caused by administration of chemical substance, Gene No. 4846” value ([1]; gene group (A), Unigene No. Rn.144554) of the same compound?
**A.** Its value is “−”.

**Q.** What about the “Behavior of gene caused by administration of chemical substance, Gene No. 2026” value [1, 3] of the same compound?
**A.** Its value is “−”.

**Q.** What about the “Behavior of gene caused by administration of chemical substance, Gene No. 4218” value [1, 3] of the same compound?
**A.** Its value is “−”.

**Q.** What about the “Behavior of gene caused by administration of chemical substance, Gene No. 6182” value ([1]; gene group (A), Unigene No. Rn.5834) of the same compound?
**A.** The value was “+”.

**Q.** And the “Behavior of gene caused by administration of chemical substance, Gene No. 5600” value ([1]; gene group (A), Unigene No. Rn.9836)?
**A.** The value was “−”.

**Q.** What about the “Behavior of gene caused by administration of chemical substance, Gene No. 1494” value ([1]; gene group (B), Unigene No. Rn.1430) of the same compound?
**A.** The value was “+”.

**Q.** And the “Behavior of gene caused by administration of chemical substance, Gene No. 2045” value ([1]; gene group (B), Unigene No. Rn.19329)?
**A.** Its value is “−”.

**Q.** What about the “Behavior of gene caused by administration of chemical substance, Gene No. 2203” value ([1]; gene group (B), Unigene No. Rn.21240) of the same compound?
**A.** Its value is “−”.

**Q.** What about the “Behavior of gene caused by administration of chemical substance, Gene No. 533” value ([1]; gene group (C), Unigene No. Rn.106184) of the same compound?
**A.** Its value is “+”.

**Q.** And the “Behavior of gene caused by administration of chemical substance, Gene No. 725” value ([1]; gene group (C), Unigene No. Rn.108075)?
**A.** Its value is “−”.

**Q.** And the “Behavior of gene caused by administration of chemical substance, Gene No. 1163” value ([1]; gene group (C), Unigene No. Rn.11766)?
**A.** Its value is “−”.

**Q.** And the “Behavior of gene caused by administration of chemical substance, Gene No. 4973” value ([1]; gene group (C), Unigene No. Rn.118529)?
**A.** Its value is “+”.

**Q.** What about the “Behavior of gene caused by administration of chemical substance, Gene No. 4095” value ([1]; gene group (C), Unigene No. Rn.119024) of the same compound?
**A.** The value was “+”.

**Q.** What about the “Behavior of gene caused by administration of chemical substance, Gene No. 1334” value [1, 4] of the same compound?
**A.** Its value is “−”.

**Q.** And the “Behavior of gene caused by administration of chemical substance, Gene No. 6620” value [1, 4]?
**A.** Its value is “−”.

**Q.** What about the “Behavior of gene caused by administration of chemical substance, Gene No. 6303” value ([1]; gene group (C), Unigene No. Rn.123063) of the same compound?
**A.** The value was “+”.

**Q.** And the “Behavior of gene caused by administration of chemical substance, Gene No. 5878” value ([1]; gene group (C), Unigene No. Rn.143213)?
**A.** Its value is “−”.

**Q.** And the “Behavior of gene caused by administration of chemical substance, Gene No. 1131” value ([1]; gene group (C), Unigene No. Rn.144946)?
**A.** The value was “+”.

**Q.** What about the “Behavior of gene caused by administration of chemical substance, Gene No. 1562” value ([1]; gene group (C), Unigene No. Rn.14744) of the same compound?
**A.** The value was “+”.

**Q.** What about the “Behavior of gene caused by administration of chemical substance, Gene No. 1741” value ([1]; gene group (C), Unigene No. Rn.1647) of the same compound?
**A.** The value was “+”.

**Q.** And the “Behavior of gene caused by administration of chemical substance, Gene No. 893” value ([1]; gene group (C), Unigene No. Rn.164817)?
**A.** The value was “+”.

**Q.** What about the “Behavior of gene caused by administration of chemical substance, Gene No. 6026” value ([1]; gene group (C), Unigene No. Rn.167685) of the same compound?
**A.** The value was “−”.

**Q.** And the “Behavior of gene caused by administration of chemical substance, Gene No. 154” value ([1]; gene group (C), Unigene No. Rn.185941)?
**A.** The value was “+”.

**Q.** What about the “Behavior of gene caused by administration of chemical substance, Gene No. 1993” value ([1]; gene group (C), Unigene No. Rn.18728) of the same compound?
**A.** Its value is “+”.

**Q.** What about the “Behavior of gene caused by administration of chemical substance, Gene No. 813” value ([1]; gene group (C), Unigene No. Rn.201760) of the same compound?
**A.** The value was “−”.

**Q.** And the “Behavior of gene caused by administration of chemical substance, Gene No. 2494” value ([1]; gene group (C), Unigene No. Rn.23969)?
**A.** The value was “−”.

**Q.** What about the “Behavior of gene caused by administration of chemical substance, Gene No. 2546” value ([1]; gene group (C), Unigene No. Rn.24561) of the same compound?
**A.** Its value is “+”.

**Q.** What about the “Behavior of gene caused by administration of chemical substance, Gene No. 3776” value ([1]; gene group (C), Unigene No. Rn.43232) of the same compound?
**A.** The value was “+”.

**Q.** And the “Behavior of gene caused by administration of chemical substance, Gene No. 3929” value ([1]; gene group (C), Unigene No. Rn.4620)?
**A.** The value was “+”.

**Q.** And the “Behavior of gene caused by administration of chemical substance, Gene No. 1119” value ([1]; gene group (C), Unigene No. Rn.9757)?
**A.** Its value is “+”.

**Q.** What about the “Behavior of gene caused by administration of chemical substance, Gene No. 6742” value ([1]; gene group (C), Unigene No. Rn.9779) of the same compound?
**A.** Its value is “+”.

**Q.** What about the “Behavior of gene caused by administration of chemical substance, Gene No. 5634” value ([1]; gene group (C), Unigene No. Rn.9862) of the same compound?
**A.** Its value is “+”.

**Q.** And the “Behavior of gene caused by administration of chemical substance, Gene No. 5726” value ([1]; gene group (D), Unigene No. Rn.9939)?
**A.** Its value is “−”.

**Q.** And the “Mutagenicity by Ames test” value [2]?
**A.** The value was “M+”.
